Each structure is given as a SMILES string.

This is an account of results in patent US5236926A, “9-substituted-8-halo or -8-hydroxy-9-deazaguanines as inhibitors or PNP for pharmaceutical compositions” (Warner-Lambert Company, priority 1992, dated 1993).

In test [1] the target is T1, purine nucleoside phosphorylase (PNP-4) (Homo sapiens, UniProt P00491).
T1 construct: using human erythrocyte as the enzyme source; from tissue; host or cells: human erythrocyte
T1 sequence (P00491 1-289): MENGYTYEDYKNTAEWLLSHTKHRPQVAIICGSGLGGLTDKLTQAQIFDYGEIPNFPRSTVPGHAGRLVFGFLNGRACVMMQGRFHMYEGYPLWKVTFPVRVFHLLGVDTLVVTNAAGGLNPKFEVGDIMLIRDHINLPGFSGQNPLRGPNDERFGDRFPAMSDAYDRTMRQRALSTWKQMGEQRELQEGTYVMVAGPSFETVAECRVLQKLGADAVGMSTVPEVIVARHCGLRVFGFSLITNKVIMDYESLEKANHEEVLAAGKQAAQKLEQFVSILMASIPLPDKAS
The test is described as follows: PNP-4 enzyme assay (radiochemical, [14C]-hypoxanthine formation from [14C]inosine). The format is biochemical. The following applies: human erythrocyte as enzyme source; activity table. The procedure: In the purine nucleoside phosphorylase (PNP-4) enzyme assay, an IC50 is achieved at a dose of about from 0.9 to 3.18 micromoles on selected compounds of the present invention. PNP-4 activity for the compounds of Formula I is measured radiochemically by measuring the formation of [^14 -C]-hypoxanthine from [^14 -C]inosine [Biomedicine 33:39 (1980)]using human erythrocyte as the enzyme source. An in vivo inhibition of purine nucleoside phosphorylase (HPLC-1) enzyme assay is used essentially as disclosed in the Annals of New York Academy of Sciences 451:313 (1985) to further show the activity of the compounds of Formula I of the present invention. […] Since removal of T-cells or modulation of T-cells are beneficial in the treatment of autoimmune diseases, these compounds being selectively cytotoxic to T-cells will, therefore, be useful in their treatment. […] Clinically it has been shown that modulation and/or removal of T-cells by thoracic duct drainage, lymphapheresis, or total lymphoid irradiation gave partial to complete relief from rheumatoid arthritis in patients who were totally refractory to other forms of therapy [A. Tanay, et al, Arthritis and Rheumatism 30(1):1 (1987); S. Strober, et al, Annual of Internal Medicine V-102(4):441-449 (1985); H. G. Nusslein, et al, Arthritis and Rheumatism V-28(11):1205-1210 (1985); E. Brahn, et al, ibid V-27(5):481-487 (1984); and J. Karsh, et al, ibid V 24(7):867-873. (1981)]. […] N. Ellis, et al, JAMA V-256( 22):3110-3116 (Dec. 12, 1986).

In test [2] the test system is skin graft in dogs. The following applies: cited from earlier work.

Compound `Nc1nc2c(Cc3ccsc3)c(Cl)[nH]c2c(=O)[nH]1` [Example 6, 2-Amino-6-chloro-3,5-dihydro-7-(3-thienylmethyl)-4H-pyrrolo[3,2-d]pyrimidin-4-one] showed an IC50 in test [1] of 2.77 µM.

In the case of `Nc1nc2c(nc(N)n2[C@@H]2O[C@H](CO)[C@@H](O)[C@H]2O)c(=O)[nH]1` [8-Aminoguanosine], the “inhibition of rejection of skin graft” value in test [2] was “efficacious for inhibiting rejection of skin graft in dogs”. As to `Nc1nc2c(Cc3ccsc3)c(F)[nH]c2c(=O)[nH]1` [Example 8, 2-Amino-6-fluoro-3,5-dihydro-7-(3-thienylmethyl) 4H-pyrrolo[3,2-d]pyrimidin-4 one], half-maximal inhibition in test [1] (IC50) was put at 0.15 µM. Same read-out and setting: the figure for `Nc1nc2c(Cc3ccsc3)c(Br)[nH]c2c(=O)[nH]1` [Example 3, 2-Amino-6-bromo-3,5-dihydro-7-(3-thienylmethyl)-4H-pyrrolo[3,2-d]pyrimidin-4-one] is 6.9 µM. For the compound `Nc1nc2c(Cc3ccsc3)c(I)[nH]c2c(=O)[nH]1` [Example 5], in test [1], the 50% inhibitory concentration (IC50) is over 30 µM.
